# Assay: in vitro
# Settings: human, hela cells, % viability
row,SMILES,"viability at 28.5 h, 10 µM [%]"
1,CCC1(C)CC(=O)c2cc(NC(=O)N(CCO)CCO)ccc2O1 (centres unmarked) [CBK307003],116
2,Cc1ccc(-c2csc3c(=O)[nH]c(N4CCCC(C(=O)NCc5cccnc5)C4)nc23)cc1 (centres unmarked) [CBK215546],91.7
3,Fc1ccccc1-c1cn2ccnc2c(NCCc2cccnc2)n1 [CBK037473],88.1
4,Cc1cc(C[C@@H]2COC[C@H]2NCc2ccc(C(C)C)cc2)on1 [CBK284884],107
5,O=C(NC1CCN(c2ncccn2)CC1)c1cccnc1O [CBK297739],99.7
6,O=S(=O)(NCCCN1CCOCC1)c1cc(C(F)(F)F)cc(C(F)(F)F)c1 [CBK005796],91
7,O=C1NN=C(O)C1Cc1ccccc1 (centres unmarked) [CBK067758],101
8,CC1CCn2c3c(c4cccc1c42)CCNCC3 (centres unmarked) [CBK018012C],97.4
9,CN1C[C@@H](C(=O)N2CCCCCC2)[C@@]2(CCc3ccccc3C2=O)C1 [CBK284590],87
10,CCCCc1cc(=O)[nH]c(N2CCOCC2)n1 [CBK003851],102
11,CCOC(=O)C1=NOC2COC3(CCN(c4ncccn4)CC3)OCC12 (centres unmarked) [CBK018602],94.3
12,O=C(Nc1cccnc1)C1CCN(C(=O)OCc2ccccc2)CC1 [CBK083187],90.6
13,O=C(CSc1nnc(C2CC2)[nH]1)Nc1ccc(SC(F)F)cc1 [CBK295302],101
14,O=C1NC2(CCc3ccccc31)CCN(C(=O)c1ccncc1)C2 (centres unmarked) [CBK283336],90.9
15,Cc1ccc(C(=O)C2=C(O)C(=O)N(Cc3cccnc3)C2c2cccc(Oc3ccccc3)c2)o1 (centres unmarked) [CBK264619],96.3
16,CC(C(=O)Nc1ccc2oc(-c3ccccc3)nc2c1)(c1ccccc1)c1ccccc1 [CBK263928],91
17,COc1ccc(Cn2nc3nnc(-c4ccc(F)cc4)c(-c4ccc(F)cc4)n3c2=O)cc1 [CBK286183],107
18,O=C(Cn1cc(C(=S)N2CCOCC2)c2ccccc21)Nc1ccc2c(c1)OCO2 [CBK266703],94.6
19,Cc1cc(C)nc(CCNCc2c(C(C)C)nn(C)c2N(C)C)n1 [CBK305159],112
20,C=C(C)Cn1c(SCC(C)C)nnc1-c1scc(C)c1Cl [CBK200095],92.7
21,O=C(Nc1nnc(-c2ccco2)o1)c1ccc(N2C(=O)CCC2=O)cc1 [CBK287423],90.7

row,SMILES,"viability at 28.5 h, 10 µM [%]"
1,COc1cccc(CC(=O)N2CCCC(c3cc4ncccc4[nH]3)C2)c1 (centres unmarked) [CBK283426],94.1
2,O=C(Nc1ccc(O)cc1)c1cnc(-c2ccc(Cl)cc2)c(-c2cccnc2)c1 [CBK037516],94.7
3,CC(=O)NCC(=O)N(c1ccccc1)C1(C(=O)NC(c2ccccc2)c2ccccc2)CCCC1 [CBK100884],102
4,CCCNC(=O)Cn1nc(CC)n2c(cc3ccsc32)c1=O [CBK284130],91.5
5,COc1ccc(NC2=C(NCCO)C(=O)c3ccccc3C2=O)cc1 [CBK264756],102
6,Cc1nnc(SCC(=O)Nc2ccc(CN3CCOCC3)cc2)n1C [CBK306092],102
7,COc1cccc(CN2CCC3(CC2)NC(=O)Cc2ccc(C)cc23)c1 [CBK040219],88.5
8,CCN(Cc1ccco1)C(=O)Cn1c(=O)n(C)c2ncccc21 [CBK282390],99.3
9,CC(=O)N1CCc2sccc2C1c1ccc(NC(=O)c2ccccc2F)cc1 (centres unmarked) [CBK286433],84.2
10,O=C1CC(c2ccco2)Cc2c1cnn2-c1nc2ccccc2s1 (centres unmarked) [CBK269292],81.4
11,CN1CCN(CC(=O)Nc2ccc(Cl)cc2C(=O)c2ccccc2)CC1 [CBK266246],91.8
12,CC(=O)c1sc(NC(=O)Cc2ccc(C)cc2)nc1C [CBK287760],89.3
13,Cc1ccc(OCCCC(=O)Nc2ccc(C(N)=O)cc2)c(C)c1 [CBK268032],93.8
14,Cc1c(-c2ccc(Cl)cc2Cl)nc2ccccc2c1C(=O)NCCC(c1ccccc1)c1ccccc1 [CBK262634],99.7
15,O=[N+]([O-])c1ccc(N2CCN(S(=O)(=O)c3ccc(Cl)cc3)CC2)cc1NCc1cccnc1 [CBK264749],123
16,COc1c(C)cccc1C(=O)NC(=S)Nc1sc2c(c1C(N)=O)CCC2 [CBK265587],84.4
17,C[C@]12CN(C(=O)C3CC3)C[C@H]1NC(=O)c1ccccc1C2=O [CBK281660],102
18,CCC1(C)CCCN(Cc2nnnn2-c2ccc(S(C)(=O)=O)cc2)C1 (centres unmarked) [CBK306180],113
19,Cc1cccn2c(=O)cc(CN3CCC(c4ccn[nH]4)CC3)nc12 [CBK305951],93.2
20,O=C(Nc1ccc(F)cc1)c1[nH]c2ccccc2c1NS(=O)(=O)c1ccc(C(F)(F)F)cc1[N+](=O)[O-] [CBK050090],90.1
21,CC(=O)c1ccc(NC(=O)NC[C@H]2C[C@@H]3CC[N@]2C[C@@H]3CN2CCCCC2)cc1 [CBK288766],92.3

row,SMILES,"viability at 28.5 h, 10 µM [%]"
1,CCCn1cnc2cc(NC(=O)Cn3cccc(C(=O)Nc4ccc(F)cc4)c3=O)ccc21 [CBK286060],84.7
2,CC(C)c1cc(C(=O)N2CCOCC2)c(NC(=O)c2cc(-c3cccnc3)nc3ccc(Br)cc23)s1 [CBK267763],93.7
3,Cn1c2ccccc2c2nnc(SCCc3ccccc3)nc21 [CBK267986],109
4,O=C(c1ccc([N+](=O)[O-])cc1)C12CN3CN(CN(C3)C1)C2 [CBK011238],87.1
5,O=C(COc1ccccc1[N+](=O)[O-])Nc1cc(-c2nc3cc(Cl)ccc3o2)ccc1Cl [CBK268639],116
6,Cn1c(=O)n(C)c2cc(CNCc3cccnc3)ccc21 [CBK268432C],99.1
7,Cc1nn(C)cc1-c1cncn1Cc1ccccc1CN(C)C [CBK281985],102
8,N#C/C(=C/c1ccc(Sc2ccc(Cl)cc2)o1)c1ccc(C(=O)O)cc1 [CBK268996],89.8
9,N#CCCn1cc(C(=O)N2CCCCC2)c(-c2ccccc2)n1 [CBK305931],100
10,Cc1ccc(S(N)(=O)=O)cc1C(=O)NC(C)CCc1ccccc1 (centres unmarked) [CBK296671],87.2
11,C(=C\c1ccccc1)/CN1CCN(CCCc2ccccc2)CC1 [CBK261897],90
12,COCOc1ccc(-c2nccnc2OC2CCCCC2)cc1 [CBK106917],94.3
13,Cn1nccc1C(=O)N[C@H]1CCC[C@@H](c2c[nH]c3ccccc23)C1 [CBK285073],93.6
14,COc1ccc(Nc2cccc(-c3cnc(OC)nc3OC)n2)cc1 [CBK036825],89.6
15,COc1cccc2cc(C(=O)NCc3ccc4c(c3)OCO4)oc12 [CBK149797],90.9
16,N#Cc1ccc(C(=O)Nc2ccc3n(c2=O)C[C@H]2C[C@@H]3CN(C(=O)c3ccccc3)C2)cc1 [CBK289073],109
17,CC(=O)Nc1ccc(S(=O)(=O)Nc2ccnc(N3CCNCC3)n2)cc1 [CBK000363C],92.5
18,COC(=O)C1CC(O)CN1S(=O)(=O)c1cccs1 (centres unmarked) [CBK086668],87
19,COc1cc(/C=N/NC(=O)CCNc2n[nH]c(=O)[nH]c2=O)cc(Br)c1O [CBK263494],88.3

# Same assay, conditions: human, hela cells, % viability, bulk resorufin, single well
row,SMILES,"viability at 28.5 h, 10 µM [%]"
1,Cc1ccc(Cn2nc(C(=O)Nc3nc4ccccc4s3)c3ccccc32)cc1 [CBK047837],92.4

# Reference: article PMC12040169 (PLOS Biology, 2025)
